{"source": "patent US20190364889A1", "about": "“Application of Enhancer in Shortening the Half Life of and/or Time for Complete Degradation of Pesticide Residue” (priority 2016, published 2019)", "details": "in vivo"}
{"smiles": "CCOCN(C(=O)CCl)c1c(C)cccc1CC", "note": "[acetochlor]", "values": [{"measurement": "complete degradation time", "result": "~21", "unit": "days"}]}
